Measured values reported in patent US12545659B2, “IRAK degraders and uses thereof” (Kymera Therapeutics, Inc., priority 2019, dated 2026).

Target: T1, IRAK4 (Homo sapiens, UniProt Q9NWZ3)
T1 construct: endogenous in cells; host or cells: OCI-LY10
T1 sequence (Q9NWZ3 1-460): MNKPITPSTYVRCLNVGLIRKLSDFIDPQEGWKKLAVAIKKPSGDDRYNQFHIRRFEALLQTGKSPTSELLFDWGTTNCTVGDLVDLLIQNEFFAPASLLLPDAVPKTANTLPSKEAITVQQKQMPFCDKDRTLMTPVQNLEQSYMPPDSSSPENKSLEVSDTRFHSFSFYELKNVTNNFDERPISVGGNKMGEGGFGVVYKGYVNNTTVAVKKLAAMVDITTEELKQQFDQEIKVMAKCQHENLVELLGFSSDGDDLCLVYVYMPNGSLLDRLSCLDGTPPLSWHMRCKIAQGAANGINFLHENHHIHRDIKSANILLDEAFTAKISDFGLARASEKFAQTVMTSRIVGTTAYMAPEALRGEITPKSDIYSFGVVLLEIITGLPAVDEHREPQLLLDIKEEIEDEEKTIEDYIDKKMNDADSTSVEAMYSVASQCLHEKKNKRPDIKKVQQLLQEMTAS
Assay: IRAK4 MSD Degradation in OCI-LY10
Type: cell-based
Details: OCI-LY10 cells, 4 hrs incubation, read-out: IRAK4 degradation in OCI-LY10 at 4 hrs: DC50
Procedure, shortened: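 IRAK4 remaining in lysates was read by Meso Scale electrochemiluminescence sandwich (2H9 capture, Y279 plus SULFO-TAG detection). Cells were exposed 4 to 24 h at 37 °C to eight 3-fold dilutions from 1 to 10 μM final top; three-parameter logistic fit gave DC50.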

| DC50 [nM] | Structure (SMILES) |
| --- | --- |
| < 50 | Cn1c(=O)n(C2CCC(=O)NC2=O)c2ccc(C3CCN(C[C@H]4CC[C@H](n5cc6cc(NC(=O)c7cccc(C(F)(F)F)n7)c(C(F)F)cc6n5)CC4)CC3)cc21 (stereo partly drawn) [I-261] |
| 50 to 100 | Cn1c(=O)n(C2CCC(=O)NC2=O)c2cccc(CCCC3CCN(C[C@H]4CC[C@H](n5cc6cc(NC(=O)c7cccc(C(F)(F)F)n7)c(N7C[C@@H]8C[C@H]7CO8)cc6n5)CC4)CC3)c21 (stereo partly drawn) [I-154] |
| 50 to 100 | CN(CCO[C@H]1C[C@H](Cc2cccc3c2n(C)c(=O)n3C2CCC(=O)NC2=O)C1)C[C@H]1CC[C@H](n2cc3cc(NC(=O)c4cccc(C(F)(F)F)n4)c(C(F)F)cc3n2)CC1 (stereo partly drawn) [I-309] |
| < 50 | Cn1c(=O)n(C2CCC(=O)NC2=O)c2cccc(CCC3CC4(CCN(C[C@H]5CC[C@H](n6cc7cc(NC(=O)c8ccccn8)c(C(F)F)cc7n6)CC5)CC4)C3)c21 (stereo partly drawn) [I-277] |
| 50 to 100 | COc1cc2nn([C@H]3CC[C@H](CN4CCN(c5ccc6c(c5)n(C)c(=O)n6C5CCC(=O)NC5=O)CC4)CC3)cc2cc1NC(=O)c1cccc(C(C)(C)F)n1 (stereo partly drawn) [I-156] |
| 50 to 100 | COc1cc2nn([C@H]3CC[C@H](CN4C[C@H]5CC[C@@H](C4)N5c4cccc5c4n(C)c(=O)n5C4CCC(=O)NC4=O)CC3)cc2cc1NC(=O)c1cccc(C(F)(F)F)n1 (stereo partly drawn) [I-284] |
| < 50 | Cc1cccc(C(=O)Nc2cc3cn([C@H]4CC[C@H](CN5CCC6(CC5)CC(CCc5cccc7c5n(C)c(=O)n7C5CCC(=O)NC5=O)C6)CC4)nc3cc2C(C)(C)O)n1 (stereo partly drawn) [I-276] |
| 50 to 100 | COc1cc2nn([C@H]3CC[C@H](C(=O)N4CCC(c5cccc6c5n(C)c(=O)n6C5CCC(=O)NC5=O)CC4)CC3)cc2cc1NC(=O)c1cccc(C(F)(F)F)n1 (stereo partly drawn) [I-295, N-[2-[4-[4-[1-(2,6-dioxo-3-piperidyl)-3-methyl-2-oxo-benzimidazol-4-yl]piperidine-1-carbonyl]cyclohexyl]-6-methoxy-indazol-5-yl]-6-(trifluoromethyl)pyridine-2-carboxamide] |
| 50 to 100 | COc1cc2nn([C@H]3CC[C@H](CN4CCC5(CC4)CC(CNc4cccc6c4n(C)c(=O)n6C4CCC(=O)NC4=O)C5)CC3)cc2cc1NC(=O)c1cccc(C(F)(F)F)n1 (stereo partly drawn) [I-163] |
| < 50 | COc1cc2nn([C@H]3CC[C@H](CN(C)C4CCN(c5cccc6c5n(C)c(=O)n6C5CCC(=O)NC5=O)CC4)CC3)cc2cc1NC(=O)c1ccccn1 (stereo partly drawn) [I-329] |
| < 50 | COc1cc2nn([C@H]3CC[C@H](CN4C[C@H]5C[C@@H]4CN5c4cccc5c4n(C)c(=O)n5C4CCC(=O)NC4=O)CC3)cc2cc1NC(=O)c1cccc(C(F)(F)F)n1 (stereo partly drawn) [I-281] |
| < 50 | COc1cc2nn([C@H]3CC[C@H](CN4CCC5(CC4)CC(Nc4cccc6c4n(C)c(=O)n6C4CCC(=O)NC4=O)C5)CC3)cc2cc1NC(=O)c1cccc(C(F)(F)F)n1 (stereo partly drawn) [I-162] |

The remaining lines, values behind:

| Structure (SMILES) | DC50 [nM] |
| --- | --- |
| COc1cc2nn([C@H]3CC[C@H](CN4[C@@H]5CC[C@H]4CN(CCc4cccc6c4n(C)c(=O)n6C4CCC(=O)NC4=O)C5)CC3)cc2cc1NC(=O)c1cccc(C(F)(F)F)n1 (stereo partly drawn) [I-133] | < 50 |
| COc1cc2nn([C@H]3CC[C@H](CN4CCN(c5ccc6c(c5)n(C)c(=O)n6C5CCC(=O)NC5=O)CC4)CC3)cc2cc1NC(=O)c1cccc(C(F)(F)F)n1 (stereo partly drawn) [I-102] | < 50 |
| Cn1c(=O)n(C2CCC(=O)NC2=O)c2cccc(OCC3CCN(C[C@H]4CC[C@H](n5cc6cc(NC(=O)c7cccc(C(F)(F)F)n7)c(C(F)F)cc6n5)CC4)CC3)c21 (stereo partly drawn) [I-115] | < 50 |
| Cn1c(=O)n(C2CCC(=O)NC2=O)c2cccc(CN3CC4(CCN(C[C@H]5CC[C@H](n6cc7cc(NC(=O)c8cccc(C(F)(F)F)n8)c(C(C)(C)O)cc7n6)CC5)CC4)C3)c21 (stereo partly drawn) [I-57] | < 50 |
| COc1cc2nn([C@H]3CC[C@H](CN4CCC5(CC4)CC(Cc4cccc6c4n(C)c(=O)n6C4CCC(=O)NC4=O)C5)CC3)cc2cc1NC(=O)c1cccc(C(F)(F)F)n1 (stereo partly drawn) [I-109] | 50 to 100 |
| Cn1c(=O)n(C2CCC(=O)NC2=O)c2cccc(CN3CC4(CCN(C(=O)[C@H]5CC[C@H](n6cc7cc(NC(=O)c8cccc(C(F)(F)F)n8)c(C(C)(C)O)cc7n6)CC5)CC4)C3)c21 (stereo partly drawn) [I-44] | < 50 |
| COc1cc2nn([C@H]3CC[C@H](CN4CCC(c5cccc6c5n(C)c(=O)n6C5CCC(=O)NC5=O)CC4)CC3)cc2cc1NC(=O)c1cccc(C(C)(C)F)n1 (stereo partly drawn) [I-114] | 50 to 100 |
| COc1cc2nn([C@H]3CC[C@H](CN(C)CC#Cc4cccc5c4n(C)c(=O)n5C4CCC(=O)NC4=O)CC3)cc2cc1NC(=O)c1cccc(C(F)(F)F)n1 (stereo partly drawn) [I-134] | 50 to 100 |
| CN(C[C@H]1CC[C@H](n2cc3cc(NC(=O)c4cccc(C(F)(F)F)n4)c(C(C)(C)O)cc3n2)CC1)C1CCN(c2ccc3c(c2)n(C2CCC(=O)NC2=O)c(=O)n3C)CC1 (stereo partly drawn) [I-83] | 500 to 1000 |
| Cn1c(=O)n(C2CCC(=O)NC2=O)c2cccc(CCC3CC4(CCN(C[C@H]5CC[C@H](n6cc7cc(NC(=O)c8cccc(C(F)(F)F)n8)c(C(C)(C)O)cc7n6)CC5)CC4)C3)c21 (stereo partly drawn) [I-53] | < 50 |

Same assay, conditions: OCI-LY10 cells, 24 hrs incubation, read-out: IRAK4 degradation in OCI-LY10 at 24 hrs: DC50

| DC50 [nM] | Structure (SMILES) |
| --- | --- |
| 500 to 1000 | O=C1CCC(N2C(=O)c3cccc(NCCC4CC5(CCN(C[C@H]6CC[C@H](c7nc8cc(N9CCOCC9)c(NC(=O)c9cccc(C(F)(F)F)n9)cc8o7)CC6)CC5)C4)c3C2=O)C(=O)N1 (stereo partly drawn) [I-199] |
| 50 to 100 | CC(C)(O)c1cc2nn([C@H]3CC[C@H](CN4CCC5(CC4)CC(CNc4cccc6c4C(=O)N(C4CCC(=O)NC4=O)C6=O)C5)CC3)cc2cc1NC(=O)c1cccc(S(F)(F)(F)(F)F)n1 (stereo partly drawn) [I-187] |
| 50 to 100 | COc1cc2nn([C@H]3CC[C@H](CN4CCC(COCCCNc5cccc6c5C(=O)N(C5CCC(=O)NC5=O)C6=O)CC4)CC3)cc2cc1NC(=O)c1cccc(C(C)(C)F)n1 (stereo partly drawn) [I-231] |
| 50 to 100 | COc1cc2nn([C@H]3CC[C@H](CN4CC5(CC(CCNc6cccc7c6C(=O)N(C6CCC(=O)NC6=O)C7=O)C5)C4)CC3)cc2cc1-n1ccc2ccccc2c1=O (stereo partly drawn) [I-286] |
| 500 to 1000 | CC(C)(O)c1cc2nc([C@H]3CC[C@H](CN4CCC5(CC4)CC(CCNc4cccc6c4C(=O)N(C4CCC(=O)NC4=O)C6=O)C5)CC3)oc2cc1NC(=O)c1cccc(C(F)(F)F)n1 (stereo partly drawn) [I-182] |
| 50 to 100 | CN(C[C@H]1CC[C@H](n2cc3cc(NC(=O)c4cccc(C(C)(C)C)n4)c(C(C)(C)O)cc3n2)CC1)[C@H]1CC[C@H](Nc2cccc3c2C(=O)N(C2CCC(=O)NC2=O)C3=O)CC1 (stereo partly drawn) [I-236] |
| < 50 | CC(C)(O)c1cc2nn([C@H]3CC[C@H](CN4CCO[C@@H](CCCNc5cccc6c5C(=O)N(C5CCC(=O)NC5=O)C6=O)C4)CC3)cc2cc1NC(=O)c1cccc(C(F)(F)F)n1 (stereo partly drawn) [I-233] |

More lines, now with the values behind:

| Structure (SMILES) | DC50 [nM] |
| --- | --- |
| COc1cc2nn([C@H]3CC[C@H](CN4CCC5(CC4)CC(CNc4cccc6c4C(=O)N([C@H]4CCC(=O)NC4=O)C6=O)C5)CC3)cc2cc1NC(=O)c1cccc(C(F)(F)F)n1 [I-131, N-[2-[4-[[2-[[[2-[(3S)-2,6-dioxo-3-piperidyl]-1,3-dioxo-isoindolin-4-yl]amino]methyl]-7-azaspiro[3.5]nonan-7-yl]methyl]cyclohexyl]-6-methoxy-indazol-5-yl]-6-(trifluoromethyl)pyridine-2-carboxamide] | 50 to 100 |
| COc1cc2nn([C@H]3CC[C@H](CN4CCO[C@@H](CCNc5cccc6c5C(=O)N(C5CCC(=O)NC5=O)C6=O)C4)CC3)cc2cc1NC(=O)c1cccc(C(F)(F)F)n1 (stereo partly drawn) [I-71] | 50 to 100 |
| CN(CCCn1cc2cc(NC(=O)c3cccc(C(F)(F)F)n3)c(C(C)(C)O)cc2n1)C1CCC2(CC1)CC(Nc1cccc3c1C(=O)N(C1CCC(=O)NC1=O)C3=O)C2 (stereo not drawn) [I-79] | 100 to 500 |
| COc1cc2nn([C@H]3CC[C@H](CN4CCO[C@H](CCCNc5cccc6c5C(=O)N(C5CCC(=O)NC5=O)C6=O)C4)CC3)cc2cc1NC(=O)c1cccc(C(F)(F)F)n1 (stereo partly drawn) [I-68] | 50 to 100 |
| CC(C)(O)c1cc2nn([C@H]3CC[C@H](CN4CCC(COCCCNc5cccc6c5C(=O)N(C5CCC(=O)NC5=O)C6=O)CC4)CC3)cc2cc1NC(=O)c1cccc(C(C)(C)F)n1 (stereo partly drawn) [I-59] | 50 to 100 |
| COc1cc2nn([C@H]3CC[C@H](CN4CCC(CO[C@H]5C[C@H](Nc6cccc7c6C(=O)N(C6CCC(=O)NC6=O)C7=O)C5)CC4)CC3)cc2cc1NC(=O)c1cccc(C(C)(C)F)n1 (stereo partly drawn) [I-140] | 50 to 100 |
| COc1cc2nn([C@H]3CC[C@H](CN4CCC5(CC4)CC(CCNc4cccc6c4C(=O)N(C4CCC(=O)NC4=O)C6=O)C5)CC3)cc2cc1NC(=O)[C@H]1CCCCO1 (stereo partly drawn) [I-142] | 500 to 1000 |
| CC(C)(O)COc1cc2nn([C@H]3CC[C@H](CN4CCC5(CC4)CC(CNc4cccc6c4C(=O)N(C4CCC(=O)NC4=O)C6=O)C5)CC3)cc2cc1NC(=O)c1cccc(C(C)(C)F)n1 (stereo partly drawn) [I-118] | 50 to 100 |
| CN(CCCO[C@H]1C[C@H](Nc2cccc3c2C(=O)N(C2CCC(=O)NC2=O)C3=O)C1)C[C@H]1CC[C@H](n2cc3cc(NC(=O)c4cccc(C(F)(F)F)n4)c(C(C)(C)O)cc3n2)CC1 (stereo partly drawn) [I-41] | < 50 |
| COc1cc2nn([C@H]3CC[C@H](CN4CCC5(CC4)CC(CCNc4cccc6c4C(=O)N(C4CCC(=O)NC4=O)C6=O)C5)CC3)cc2cc1NC(=O)c1ccc(F)c(C)n1 (stereo partly drawn) [I-121] | 50 to 100 |
